Source: US8063043B2, “Salts of N-[6-cis-2,6-dimethylmorpholin-4-yl)pyridine-3-yl]-2-methyl-4′-(trifluoromethoxy)[1,1′-biphenyl]-3-carboxamide” (Novartis AG, priority 2008, dated 2011)
“And” between values parts separate entries of the source, which are not always exact repeats. Equal values may be shown once. Read-outs that look alike come from different tables or passages of the source.

Legend:
[1] = Hygroscopicity, DVS sorption/desorption isotherms; assay type: physicochemical; conditions: for DVS Desorp. Weight % chg. / DVS Sorp. Weight % chg.: 25° C.
Procedure: Sorption/desorption isotherms: Instrument, Surface Measurement System DVS-1 temperature at 25±0.5° C.

[2] = Stability: appearance color (CL); assay type: physicochemical
[3] = pH of 1% solution or suspension; assay type: physicochemical; conditions: In water
Procedure: The solutions were stirred continuously as the pH was measured.

[4] = pH 6.8
[5] = Thermogravimetry (weight loss / loss on drying); assay type: physicochemical; conditions: at 150° C.; for Thermogravimetry (weight loss in %): Heating rate 10° C./min; for Loss on drying by TGA (%): Hygroscopicity, as is
[6] = Solid form after stress test (XRPD/DSC); assay type: physicochemical; conditions: for Bulk (DSC): change: 2 week 80° C.
physchem = conditions: 25 °C, thermodynamic from solid, Solubility (approx. at 25° C., mg/ml)
[7] = Crystal modification after 72 hours vibration (polymorphism behavior of slurries); assay type: physicochemical
Text: The slurries were filtered and the solids collected for XRPD analyses.

[8] = Stability measured by degradation products (DP, HPLC area-%); assay type: physicochemical
Procedure: DPs are analyzed by HPLC (method see Table 3). They are calculated as area-% products. Compositions of the mixtures in mass % are as follows.
For salts in water, acetonitrile was added to dilute the 0.2% slurry to 0.1% clear solution. For salts in methanol, acetonitrile or acetonitrile/water (50:50, v/v), the corresponding solvent or solvent mixture was added to dilute the 0.2% slurry to 0.1% clear solution. For salts in 0.5% CMC, HPMC cellulose 4000 0.5%, or Tween 80, 0.8%, tetrahydrofuran and water were added to dilute the 2% slurry to 0.1% clear solution and to reach tetrahydrofuran/water 50:50 (v/v). For bulk stability samples (including the samples in excipient mixtures), acetonitrile/water (80:20, v/v) was added to make 0.1% clear solution.

[9] = Bulk corrosivity with stainless steel coupon; assay type: physicochemical; conditions: 2 day 80% r.h. with stainless steel coupon; change in the surface of the coupon
[10] = Wistar rats, 10 mg/kg, suspension
[11] = Approximate solubility at 25° C.; conditions: thermodynamic from solid
in vivo = conditions: Wistar, rat, 10 mg/kg, Wistar rats, suspension
[12] = 0.2% solutions or suspensions, 2 week 50° C., Acetonitrile/Water (50:50), clear solution after stress test (*)
[13] = 0.2% solutions or suspensions, 2 week 50° C., Acetonitrile, clear solution after stress test (*)
[14] = 0.2% solutions or suspensions, 2 week 50° C., Methanol, clear solution after stress test (*)
[15] = 0.2% solutions or suspensions, 2 week 50° C., Water, suspension (↓)
[16] = 2% (or 5%) solutions or suspensions, 1 day room temperature, 0.5% CMC, suspension (↓)
[17] = 2% (or 5%) solutions or suspensions, 1 day room temperature, HPMC Cellulose 4000 0.5%, suspension (↓)
[18] = 2% (or 5%) solutions or suspensions, 1 day room temperature, Tween 80, 0.8%, suspension (↓)
[19] = Solid state, 2 week 50° C., tight container
[20] = Solid state, 2 week 50° C./75% r.h., footnote: new peak in the XRPD pattern compared with unstressed diphosphate
[21] = Solid state, 2 week 80° C./75% r.h., footnote: pattern similar to that of phosphate, with one extra peak
[22] = Xenon light (approx. 1200 kLuxh)
[23] = 0.2% solutions or suspensions, 2 week 50° C., Acetonitrile
[24] = 0.2% solutions or suspensions, 2 week 50° C., Acetonitrile/Water (50:50)
[25] = 0.2% solutions or suspensions, 2 week 50° C., Methanol
[26] = 0.2% solutions or suspensions, 2 week 50° C., Water
[27] = 2% (or 5%) solutions or suspensions, 1 day room temperature, 0.5% CMC
[28] = 2% (or 5%) solutions or suspensions, 1 day room temperature, HPMC Cellulose 4000 0.5%
[29] = 2% (or 5%) solutions or suspensions, 1 day room temperature, Tween 80, 0.8%
[30] = 2 weeks 50° C., tight container, 1% in mixture 1 (Lactose/maize starch/Aerosil/Magnesiumstearate)
[31] = 2 weeks 50° C., tight container, 1% in mixture 2 (Mannitol/Avicel PH 102/Cutina HR)
[32] = 2 weeks 50° C./75% r.h., 1% in mixture 1
[33] = 2 weeks 50° C./75% r.h., 1% in mixture 2
[34] = Solid state, 2 week 50° C., tight container, Bulk (HPLC)
[35] = Solid state, 2 week 50° C./75% r.h., Bulk (HPLC)
[36] = Solid state, 2 week 80° C., tight container, Bulk (HPLC)
[37] = Solid state, 2 week 80° C./75% r.h., Bulk (HPLC)
[38] = Unstressed drug substance, bulk
[39] = Xenon light (approx. 1200 kLuxh), Bulk (HPLC)
[40] = individual rats, listed as Compound A Sulfate, monosulfate salt

Cc1c(C(=O)Nc2ccc(N3C[C@@H](C)O[C@@H](C)C3)nc2)cccc1-c1ccc(OC(F)(F)F)cc1.Cl [Hydrochloride, mono]
XRPD after DVS test [1]: No change
DVS Desorp. Weight % chg. ([1]; RH 0.0%): −0.0114%
DVS Sorp. Weight % chg. ([1]; RH 0.0%): −0.0001%
DVS Desorp. Weight % chg. ([1]; RH 25.0%): 0.3799%
DVS Sorp. Weight % chg. ([1]; RH 25.0%): 0.3334%
DVS Desorp. Weight % chg. ([1]; RH 50.0%): 0.4932%
DVS Sorp. Weight % chg. ([1]; RH 50.0%): 0.4660%
DVS Desorp. Weight % chg. ([1]; RH 75.0%): 0.6069%
DVS Sorp. Weight % chg. ([1]; RH 75.0%): 0.5753%
DVS Desorp. Weight % chg. ([1]; RH 85.0%): 0.6817%
DVS Sorp. Weight % chg. ([1]; RH 85.0%): 0.6525%
DVS Desorp. Weight % chg. ([1]; RH 95.0%): 0.8784%
DVS Sorp. Weight % chg. ([1]; RH 95.0%): 0.8784%
CL [2, 12]: A *
CL [2, 13]: A *
CL [2, 14]: A *
CL [2, 15]: A ↓
CL [2, 16]: A ↓
CL [2, 17]: A ↓
CL [2, 18]: A ↓
pH of 1% solution or suspension [3]: 1.69
Solubility (approx. at 25° C., mg/ml) ([4]; 1 day): 0.000 (Final mg/ml
Final pH of solubility sample [4]: pH 5.93)
Thermogravimetry (weight loss in %) [5]: 0.48% at 150 °C
Loss on drying by TGA (%) [5]: 0.48 at 150 °C %
Bulk (XRPD): change [6, 19]: No
Bulk (XRPD): change [6, 20]: No
Bulk (DSC): change ([6]; Solid state, tight container): No
Bulk (XRPD): change [6, 21]: No
Bulk (XRPD): change [6, 22]: No
solubility at 1 day (physchem; pH 1, simulated gastric fluid): 2 µg/mL
solubility at 1 day (physchem; water): 5 µg/mL
Crystal modification after 72 hours vibration (DSC/XRPD/TG) ([7]; 0.1N HCl solution): XRPD pattern
Crystal modification after 72 hours vibration (DSC/XRPD/TG) ([7]; Acetone, N—no, Y—yes): N, no form change
Crystal modification after 72 hours vibration (DSC/XRPD/TG) ([7]; Acetonitrile, N—no, Y—yes): N, no form change
Crystal modification after 72 hours vibration (DSC/XRPD/TG) ([7]; Ethanol, N—no, Y—yes): N, no form change
Crystal modification after 72 hours vibration (DSC/XRPD/TG) ([7]; Ethyl acetate, N—no, Y—yes): N, no form change
Crystal modification after 72 hours vibration (DSC/XRPD/TG) ([7]; Iso Propanol, N—no, Y—yes): N, no form change
Crystal modification after 72 hours vibration (DSC/XRPD/TG) ([7]; Water): Dissociated to free
Final pH of slurry ([7]; Water): Final pH 1.94
Crystal modification after 72 hours vibration (DSC/XRPD/TG) ([7]; pH 3 buffer): Dissociated to free
Final pH of slurry ([7]; pH 3 buffer): Final pH 2.89
Crystal modification after 72 hours vibration (DSC/XRPD/TG) ([7]; pH 6.8 buffer): No form change
Final pH of slurry ([7]; pH 6.8 buffer): Final pH 5.93
DP [%] [8, 23]: 0.38%
DP [%] [8, 24]: 1.72%
DP [%] [8, 25]: 2.06%
DP [%] [8, 26]: 0.31%
DP [%] [8, 27]: 0.33%
DP [%] [8, 28]: 0.32%
DP [%] [8, 29]: 0.31%
DP [%] [8, 30]: 0.27%
DP [%] [8, 31]: 0.39%
DP [%] [8, 32]: 2.85%
DP [%] [8, 33]: 0.31%
DP [%] [8, 34]: 0.31%
DP [%] [8, 35]: 0.29%
DP [%] [8, 36]: 0.35%
DP [%] [8, 37]: 0.35%
DP [%] [8, 38]: 0.30%
DP [%] [8, 39]: 1.46%
Bulk corrosivity [9]: No visible change

Cc1c(C(=O)Nc2ccc(N3C[C@@H](C)O[C@@H](C)C3)nc2)cccc1-c1ccc(OC(F)(F)F)cc1.O=S(=O)(O)O [Sulfate, mono]
XRPD after DVS test [1]: No change
DVS Desorp. Weight % chg. ([1]; RH 0.0%): 1.007%
DVS Sorp. Weight % chg. ([1]; RH 0.0%): 0.000%
DVS Desorp. Weight % chg. ([1]; RH 25.0%): 1.256%
DVS Sorp. Weight % chg. ([1]; RH 25.0%): 1.232%
DVS Desorp. Weight % chg. ([1]; RH 50.0%): 1.495%
DVS Sorp. Weight % chg. ([1]; RH 50.0%): 1.455%
DVS Desorp. Weight % chg. ([1]; RH 75.0%): 1.716%
DVS Sorp. Weight % chg. ([1]; RH 75.0%): 1.634%
DVS Desorp. Weight % chg. ([1]; RH 95.0%): 2.330%
DVS Sorp. Weight % chg. ([1]; RH 95.0%): 2.330%
CL [2, 12]: A *
CL [2, 13]: A *
CL [2, 14]: A *
CL [2, 15]: A ↓
CL [2, 16]: A ↓
CL [2, 17]: A ↓
CL [2, 18]: A ↓
pH of 1% solution or suspension [3]: 1.45
less exposure in-vivo than the diphosphate salt [10]: about 40%
AUC0-24/dose [10, 40]: 2590 (ng*h/mL)/(mg/kg/day) and 2870 (ng*h/mL)/(mg/kg/day) and 3620 (ng*h/mL)/(mg/kg/day)
Cmax [10, 40]: 1860 ng/mL and 3560 ng/mL
Cmax/Dose [10, 40]: 190 (ng/mL)/(mg/kg/day) (2×) and 360 (ng/mL)/(mg/kg/day)
tmax [10, 40]: 4 h and 2 h and 1 h
Thermogravimetry (weight loss in %) [5]: 1.89% at 150 °C
Loss on drying by TGA (%) [5]: 1.89 at 150 °C %
Bulk (XRPD): change [6, 19]: No
Bulk (XRPD): change [6, 20]: No
Bulk (DSC): change ([6]; Solid state, tight container): No
Bulk (XRPD): change [6, 21]: No
Bulk (XRPD): change [6, 22]: No
solubility at 1 day ([11]; 0.1N HCl, pH 1, simulated gastric fluid): 3 µg/mL
solubility at 1 day ([11]; 2-propanol, organic solvent or mixture): 4000 µg/mL
solubility at 1 day ([11]; acetone, organic solvent or mixture): 1700 µg/mL
solubility at 1 day ([11]; acetonitrile, organic solvent or mixture): 1400 µg/mL
solubility at 1 day ([11]; ethanol, organic solvent or mixture): 19700 µg/mL
solubility at 1 day ([11]; ethyl acetate, organic solvent or mixture): 90 µg/mL
solubility at 1 day ([11]; methanol, organic solvent or mixture): 24400 µg/mL
solubility at 1 day ([11]; phosphate buffer, pH 6.8, aqueous buffer): 2 µg/mL
solubility at 1 day ([11]; water): 7 µg/mL
Cmax (in vivo; Cmax, individual rats): 1900 ng/mL
tmax (in vivo; mean tmax): 2.3 h
Crystal modification after 72 hours vibration (DSC/XRPD/TG) ([7]; 0.1N HCl solution): XRPD pattern
Crystal modification after 72 hours vibration (DSC/XRPD/TG) ([7]; Acetonitrile, N—no, Y—yes): N, no form change
Crystal modification after 72 hours vibration (DSC/XRPD/TG) ([7]; Ethanol, N—no, Y—yes): N, no form change
Crystal modification after 72 hours vibration (DSC/XRPD/TG) ([7]; Ethyl acetate, N—no, Y—yes): N, no form change
Crystal modification after 72 hours vibration (DSC/XRPD/TG) ([7]; Iso Propanol, N—no, Y—yes): N, no form change
Crystal modification after 72 hours vibration (DSC/XRPD/TG) ([7]; Water): Dissociated to free
Final pH of slurry ([7]; Water): Final pH 1.26
Crystal modification after 72 hours vibration (DSC/XRPD/TG) ([7]; pH 3 buffer): Dissociated to free
Final pH of slurry ([7]; pH 3 buffer): Final pH 2.00
Crystal modification after 72 hours vibration (DSC/XRPD/TG) ([7]; pH 6.8 buffer): Dissociated to free
Final pH of slurry ([7]; pH 6.8 buffer): Final pH 1.82
DP [%] [8, 23]: 0.44%
DP [%] [8, 24]: 0.80%
DP [%] [8, 25]: 0.68%
DP [%] [8, 26]: 0.41%
DP [%] [8, 27]: 0.45%
DP [%] [8, 28]: 0.47%
DP [%] [8, 29]: 0.43%
DP [%] [8, 30]: 0.41%
DP [%] [8, 31]: 0.44%
DP [%] [8, 32]: 0.70%
DP [%] [8, 33]: 0.41%
DP [%] [8, 34]: 0.40%
DP [%] [8, 35]: 0.42%
DP [%] [8, 36]: 0.43%
DP [%] [8, 37]: 1.34%
DP [%] [8, 38]: 0.42%
DP [%] [8, 39]: 1.1%
Bulk corrosivity [9]: No visible change
